In article PMC10046369, “Low-Affinity/High-Selectivity Dopamine Transport Inhibition Sufficient to Rescue Cognitive Functions in the Aging Rat” (Biomolecules, 2023):

Key:
Assay in all cases: biochemical
Set-up in all cases: KINOMEscan competition binding panel, per cent of control
Details in all cases: read-out: %Ctrl @ 2800nM
JNK3 = target: T1, JNK3 (Homo sapiens, UniProt P53779)
T1 construct: gene MAPK10
In short: (§1)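 Values are expressed as percent of control, calculated as ((test − positive control)/(negative control − positive control)) × 100, so lower numbers mean stronger hits. Binding was measured by KINOMEscan competition assay in a 450-kinase human panel including disease mutants, using the contractor's validated protocol.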

PLK1 = PLK1 (Homo sapiens, UniProt P53350)
In short: as §1

LCK = LCK (Homo sapiens, UniProt P06239)
In short: as §1

PRKD3 = PRKD3 (Homo sapiens, UniProt O94806)
In short: as §1

PIM3 = PIM3 (Homo sapiens, UniProt Q86V86)
In short: as §1

MARK4 = MARK4 (Homo sapiens, UniProt Q96L34)
In short: as §1

ADCK4 = target: T2, ADCK4 (Homo sapiens, UniProt Q96D53)
T2 construct: gene COQ8B
In short: as §1

SRPK3 = SRPK3 (Homo sapiens, UniProt Q9UPE1)
In short: as §1

FLT4 = FLT4 (Homo sapiens, UniProt P35916)
In short: as §1

[1] = target: T3, ABL1(Y253F)-phosphorylated (Homo sapiens, UniProt P00519, Y253F)
T3 construct: phosphorylated
In short: as §1

TEC = TEC (Homo sapiens, UniProt P42680)
In short: as §1

AMPK-alpha2 = target: T4, AMPK-alpha2 (Homo sapiens, UniProt P54646)
T4 construct: gene PRKAA2
In short: as §1

TAK1 = target: T5, TAK1 (Homo sapiens, UniProt O43318)
T5 construct: gene MAP3K7
In short: as §1

BUB1 = BUB1 (Homo sapiens, UniProt O43683)
In short: as §1

p38-beta = target: T6, p38-beta (Homo sapiens, UniProt Q15759)
T6 construct: gene MAPK11
In short: as §1

GRK4 = GRK4 (Homo sapiens, UniProt P32298)
In short: as §1

CAMK2G = CAMK2G (Homo sapiens, UniProt Q13555)
In short: as §1

HCK = HCK (Homo sapiens, UniProt P08631)
In short: as §1

DCAMKL1 = target: T7, DCAMKL1 (Homo sapiens, UniProt O15075)
T7 construct: gene DCLK1
In short: as §1

PKMYT1 = PKMYT1 (Homo sapiens, UniProt Q99640)
In short: as §1

HPK1 = target: T8, HPK1 (Homo sapiens, UniProt Q92918)
T8 construct: gene MAP4K1
In short: as §1

DAPK2 = DAPK2 (Homo sapiens, UniProt Q9UIK4)
In short: as §1

ARK5 = target: T9, ARK5 (Homo sapiens, UniProt O60285)
T9 construct: gene NUAK1
In short: as §1

NEK2 = NEK2 (Homo sapiens, UniProt P51955)
In short: as §1

FYN = FYN (Homo sapiens, UniProt P06241)
In short: as §1

CASK = CASK (Homo sapiens, UniProt O14936)
In short: as §1

IRAK4 = IRAK4 (Homo sapiens, UniProt Q9NWZ3)
In short: as §1

T2 sequence (Q96D53 whole entry): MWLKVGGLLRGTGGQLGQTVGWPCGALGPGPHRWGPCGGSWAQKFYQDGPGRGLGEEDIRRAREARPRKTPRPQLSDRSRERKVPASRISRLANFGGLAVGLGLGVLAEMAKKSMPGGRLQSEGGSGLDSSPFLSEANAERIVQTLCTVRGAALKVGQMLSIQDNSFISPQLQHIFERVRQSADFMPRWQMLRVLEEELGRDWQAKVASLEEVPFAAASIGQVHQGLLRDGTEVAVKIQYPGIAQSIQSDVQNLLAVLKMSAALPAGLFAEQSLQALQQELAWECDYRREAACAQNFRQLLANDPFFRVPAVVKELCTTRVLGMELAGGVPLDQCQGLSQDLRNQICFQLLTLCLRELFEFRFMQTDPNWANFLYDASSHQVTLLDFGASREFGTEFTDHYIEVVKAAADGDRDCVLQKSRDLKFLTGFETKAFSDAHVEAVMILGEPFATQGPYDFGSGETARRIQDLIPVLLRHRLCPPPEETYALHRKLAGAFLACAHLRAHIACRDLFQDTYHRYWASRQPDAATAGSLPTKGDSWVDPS
IRAK4, sequence (Q9NWZ3 whole entry): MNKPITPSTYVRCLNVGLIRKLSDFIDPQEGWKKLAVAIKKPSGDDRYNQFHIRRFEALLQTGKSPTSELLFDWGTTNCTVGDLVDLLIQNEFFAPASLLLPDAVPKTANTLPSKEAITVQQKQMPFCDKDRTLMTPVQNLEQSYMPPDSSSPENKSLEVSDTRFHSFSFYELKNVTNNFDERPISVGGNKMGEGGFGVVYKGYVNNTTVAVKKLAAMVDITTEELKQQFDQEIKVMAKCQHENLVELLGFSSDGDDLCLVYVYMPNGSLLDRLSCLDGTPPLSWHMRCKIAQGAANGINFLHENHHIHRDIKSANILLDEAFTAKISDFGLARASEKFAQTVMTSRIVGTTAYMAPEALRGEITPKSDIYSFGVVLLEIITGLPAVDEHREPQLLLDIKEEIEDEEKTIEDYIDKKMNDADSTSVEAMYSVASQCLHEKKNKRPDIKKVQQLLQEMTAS
FLT4, sequence (P35916 whole entry): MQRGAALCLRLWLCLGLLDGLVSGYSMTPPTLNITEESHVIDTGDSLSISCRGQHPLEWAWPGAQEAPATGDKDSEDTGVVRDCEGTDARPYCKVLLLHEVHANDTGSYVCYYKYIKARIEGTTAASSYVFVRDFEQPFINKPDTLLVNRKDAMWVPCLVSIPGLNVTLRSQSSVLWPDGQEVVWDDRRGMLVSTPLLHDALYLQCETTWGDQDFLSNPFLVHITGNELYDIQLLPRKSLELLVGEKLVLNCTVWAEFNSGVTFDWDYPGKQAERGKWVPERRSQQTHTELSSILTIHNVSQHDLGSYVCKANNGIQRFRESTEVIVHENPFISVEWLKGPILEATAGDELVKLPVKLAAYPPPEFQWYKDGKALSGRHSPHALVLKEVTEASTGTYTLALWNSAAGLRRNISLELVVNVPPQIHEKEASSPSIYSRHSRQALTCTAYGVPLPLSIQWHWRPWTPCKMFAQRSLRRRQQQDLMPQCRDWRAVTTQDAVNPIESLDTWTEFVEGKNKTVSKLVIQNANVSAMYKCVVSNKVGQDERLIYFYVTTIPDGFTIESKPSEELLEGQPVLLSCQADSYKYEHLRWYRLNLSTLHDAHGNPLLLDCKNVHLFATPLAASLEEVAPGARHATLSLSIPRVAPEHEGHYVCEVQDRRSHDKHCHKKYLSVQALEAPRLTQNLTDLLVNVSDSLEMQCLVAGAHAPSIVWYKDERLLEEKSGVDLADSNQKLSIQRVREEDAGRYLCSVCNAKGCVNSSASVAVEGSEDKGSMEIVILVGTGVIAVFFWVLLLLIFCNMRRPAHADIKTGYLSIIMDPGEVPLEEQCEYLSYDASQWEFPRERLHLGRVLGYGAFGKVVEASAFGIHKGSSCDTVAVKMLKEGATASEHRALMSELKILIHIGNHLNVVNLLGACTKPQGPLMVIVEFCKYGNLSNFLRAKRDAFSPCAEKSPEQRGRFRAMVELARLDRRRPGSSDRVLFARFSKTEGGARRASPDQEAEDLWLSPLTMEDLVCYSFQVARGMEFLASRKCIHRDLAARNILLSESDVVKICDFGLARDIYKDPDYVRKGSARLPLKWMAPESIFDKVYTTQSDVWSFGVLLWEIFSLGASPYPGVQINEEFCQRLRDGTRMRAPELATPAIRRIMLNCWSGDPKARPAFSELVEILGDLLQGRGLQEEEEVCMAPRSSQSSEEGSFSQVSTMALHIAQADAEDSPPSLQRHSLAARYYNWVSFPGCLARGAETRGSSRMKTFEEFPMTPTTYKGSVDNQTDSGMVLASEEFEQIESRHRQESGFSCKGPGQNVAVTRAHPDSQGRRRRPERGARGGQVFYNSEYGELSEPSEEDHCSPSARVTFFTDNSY
CASK, sequence (O14936 whole entry): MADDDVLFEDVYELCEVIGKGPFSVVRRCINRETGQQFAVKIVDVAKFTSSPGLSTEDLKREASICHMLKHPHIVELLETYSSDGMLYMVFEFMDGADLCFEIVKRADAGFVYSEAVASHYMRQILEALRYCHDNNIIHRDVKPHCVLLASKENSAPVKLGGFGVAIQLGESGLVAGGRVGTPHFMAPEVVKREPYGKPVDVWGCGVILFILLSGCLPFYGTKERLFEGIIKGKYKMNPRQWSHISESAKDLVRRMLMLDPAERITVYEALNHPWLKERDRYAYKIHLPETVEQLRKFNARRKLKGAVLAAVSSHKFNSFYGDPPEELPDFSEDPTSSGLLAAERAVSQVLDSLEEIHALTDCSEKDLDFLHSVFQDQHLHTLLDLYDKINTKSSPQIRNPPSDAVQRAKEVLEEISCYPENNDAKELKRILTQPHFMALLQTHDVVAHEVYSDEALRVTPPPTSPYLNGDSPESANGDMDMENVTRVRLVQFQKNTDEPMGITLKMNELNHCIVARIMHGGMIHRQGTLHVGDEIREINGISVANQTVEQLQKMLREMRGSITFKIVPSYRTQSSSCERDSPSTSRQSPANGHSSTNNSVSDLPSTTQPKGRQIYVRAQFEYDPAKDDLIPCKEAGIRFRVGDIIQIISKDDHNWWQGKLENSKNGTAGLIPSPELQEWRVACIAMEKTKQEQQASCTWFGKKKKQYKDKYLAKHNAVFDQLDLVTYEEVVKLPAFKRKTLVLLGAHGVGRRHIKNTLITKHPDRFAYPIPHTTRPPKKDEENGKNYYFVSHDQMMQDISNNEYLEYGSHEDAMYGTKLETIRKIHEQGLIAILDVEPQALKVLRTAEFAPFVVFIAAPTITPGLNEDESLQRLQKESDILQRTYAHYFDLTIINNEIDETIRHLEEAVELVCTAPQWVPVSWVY
PKMYT1, sequence (Q99640 whole entry): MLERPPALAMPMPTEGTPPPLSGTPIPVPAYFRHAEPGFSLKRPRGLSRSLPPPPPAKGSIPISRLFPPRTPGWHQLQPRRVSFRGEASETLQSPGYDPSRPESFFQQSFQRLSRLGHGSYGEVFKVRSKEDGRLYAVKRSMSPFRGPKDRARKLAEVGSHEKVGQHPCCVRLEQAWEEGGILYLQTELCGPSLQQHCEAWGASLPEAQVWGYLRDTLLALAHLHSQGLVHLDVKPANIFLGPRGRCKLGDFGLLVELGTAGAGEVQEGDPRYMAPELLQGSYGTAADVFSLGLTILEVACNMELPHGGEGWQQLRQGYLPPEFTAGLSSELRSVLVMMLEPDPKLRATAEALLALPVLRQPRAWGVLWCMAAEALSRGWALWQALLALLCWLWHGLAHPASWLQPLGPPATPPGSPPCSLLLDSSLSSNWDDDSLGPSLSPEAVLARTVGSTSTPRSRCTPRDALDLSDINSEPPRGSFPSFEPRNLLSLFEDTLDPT
T1 sequence (P53779 whole entry): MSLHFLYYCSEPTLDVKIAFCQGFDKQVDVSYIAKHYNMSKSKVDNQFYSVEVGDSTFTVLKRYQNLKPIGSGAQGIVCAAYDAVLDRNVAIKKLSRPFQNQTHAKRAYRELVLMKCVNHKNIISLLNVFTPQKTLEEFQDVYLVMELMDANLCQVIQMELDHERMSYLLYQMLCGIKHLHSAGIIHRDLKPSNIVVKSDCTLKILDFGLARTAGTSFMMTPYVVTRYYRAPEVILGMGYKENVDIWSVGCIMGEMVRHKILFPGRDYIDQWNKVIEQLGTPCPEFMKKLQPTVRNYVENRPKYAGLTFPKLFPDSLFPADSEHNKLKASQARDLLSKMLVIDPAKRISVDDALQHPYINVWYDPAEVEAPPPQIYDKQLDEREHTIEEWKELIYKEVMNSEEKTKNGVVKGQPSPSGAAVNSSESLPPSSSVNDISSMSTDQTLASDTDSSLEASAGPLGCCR
DAPK2, sequence (Q9UIK4 whole entry): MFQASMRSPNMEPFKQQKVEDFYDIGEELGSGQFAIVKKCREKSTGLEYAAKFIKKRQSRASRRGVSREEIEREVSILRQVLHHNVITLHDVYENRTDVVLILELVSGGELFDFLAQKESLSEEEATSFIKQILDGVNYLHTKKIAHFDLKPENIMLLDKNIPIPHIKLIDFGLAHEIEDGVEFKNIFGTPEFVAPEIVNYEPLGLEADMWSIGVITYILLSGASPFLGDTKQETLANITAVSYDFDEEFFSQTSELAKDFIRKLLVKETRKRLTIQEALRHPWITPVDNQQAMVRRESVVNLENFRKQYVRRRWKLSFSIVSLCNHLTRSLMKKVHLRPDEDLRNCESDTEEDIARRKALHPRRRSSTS

**Q.** For `[O-][S@@+](Cc1cncs1)C(c1ccccc1)c1ccccc1` [S-CE-123, (S)-5-((Benzhydrylsulfinyl)Methyl)Thiazole], which remaining binding at 2.8 µM (JNK3) is on record?
**A.** 74%

**Q.** What about the remaining binding at 2.8 µM (PLK1) of the same compound?
**A.** 79%

**Q.** And the remaining binding at 2.8 µM (LCK)?
**A.** 100%

**Q.** And the remaining binding at 2.8 µM (PRKD3)?
**A.** 96%

**Q.** And the remaining binding at 2.8 µM (PIM3)?
**A.** 100%

**Q.** What about the remaining binding at 2.8 µM (MARK4) of the same compound?
**A.** 98%

**Q.** And the remaining binding at 2.8 µM (ADCK4)?
**A.** 96%

**Q.** And the remaining binding at 2.8 µM (SRPK3)?
**A.** 76%

**Q.** What about the remaining binding at 2.8 µM (FLT4) of the same compound?
**A.** 100%

**Q.** What about the remaining binding at 2.8 µM [1] of the same compound?
**A.** 93%

**Q.** And the remaining binding at 2.8 µM (TEC)?
**A.** 100%

**Q.** And the remaining binding at 2.8 µM (AMPK-alpha2)?
**A.** 97%

**Q.** What about the remaining binding at 2.8 µM (TAK1) of the same compound?
**A.** 71%

**Q.** What about the remaining binding at 2.8 µM (BUB1) of the same compound?
**A.** 100%

**Q.** What about the remaining binding at 2.8 µM (p38-beta) of the same compound?
**A.** 94%

**Q.** And the remaining binding at 2.8 µM (GRK4)?
**A.** 73%

**Q.** What about the remaining binding at 2.8 µM (CAMK2G) of the same compound?
**A.** 95%

**Q.** And the remaining binding at 2.8 µM (HCK)?
**A.** 99%

**Q.** And the remaining binding at 2.8 µM (DCAMKL1)?
**A.** 100%

**Q.** What about the remaining binding at 2.8 µM (PKMYT1) of the same compound?
**A.** 88%

**Q.** And the remaining binding at 2.8 µM (HPK1)?
**A.** 89%

**Q.** And the remaining binding at 2.8 µM (DAPK2)?
**A.** 96%

**Q.** What about the remaining binding at 2.8 µM (ARK5) of the same compound?
**A.** 100%

**Q.** And the remaining binding at 2.8 µM (NEK2)?
**A.** 96%

**Q.** And the remaining binding at 2.8 µM (FYN)?
**A.** 93%

**Q.** What about the remaining binding at 2.8 µM (CASK) of the same compound?
**A.** 82%

**Q.** And the remaining binding at 2.8 µM (IRAK4)?
**A.** 94%
